Consider 2 molecules from publication PMC2730992 (Molecular and biochemical parasitology, 2009).

Data set [1] concerns the target T1, Tb AdoMetDC/Tc Prozyme (Trypanosoma brucei, UniProt P50244).
T1 sequence (P50244 1-85): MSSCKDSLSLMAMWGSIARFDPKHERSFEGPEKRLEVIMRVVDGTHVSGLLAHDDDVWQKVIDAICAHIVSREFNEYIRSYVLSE
T1 sequence (P50244 86-370): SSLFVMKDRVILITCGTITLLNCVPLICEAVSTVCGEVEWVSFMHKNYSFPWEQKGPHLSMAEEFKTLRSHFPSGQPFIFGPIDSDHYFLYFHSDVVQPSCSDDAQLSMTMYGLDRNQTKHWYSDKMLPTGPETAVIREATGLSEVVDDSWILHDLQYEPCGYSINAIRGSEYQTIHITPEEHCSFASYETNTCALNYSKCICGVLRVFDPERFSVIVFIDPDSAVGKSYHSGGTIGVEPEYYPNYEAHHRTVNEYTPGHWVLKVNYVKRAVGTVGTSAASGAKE
T1 sequence (Q4DQQ6 1-326 partner): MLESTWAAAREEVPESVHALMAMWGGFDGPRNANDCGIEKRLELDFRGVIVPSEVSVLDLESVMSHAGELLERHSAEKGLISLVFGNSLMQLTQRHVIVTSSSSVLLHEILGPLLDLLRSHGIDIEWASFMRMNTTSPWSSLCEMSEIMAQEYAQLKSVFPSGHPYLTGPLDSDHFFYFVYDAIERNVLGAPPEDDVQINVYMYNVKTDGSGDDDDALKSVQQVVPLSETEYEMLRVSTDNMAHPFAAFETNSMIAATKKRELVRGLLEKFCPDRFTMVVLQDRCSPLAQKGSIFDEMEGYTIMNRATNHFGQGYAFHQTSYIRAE
Format: biochemical. The following applies: 5 mM putrescine; allosteric activator; pH 8.0, 37 °C.

Data set [2] addresses T2, Tc AdoMetDC/Tb Prozyme (Trypanosoma cruzi, UniProt O76240).
T2 sequence (O76240 1-85): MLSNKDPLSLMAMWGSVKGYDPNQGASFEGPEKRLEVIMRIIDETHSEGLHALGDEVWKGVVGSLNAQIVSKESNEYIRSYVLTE
T2 sequence (O76240 86-370): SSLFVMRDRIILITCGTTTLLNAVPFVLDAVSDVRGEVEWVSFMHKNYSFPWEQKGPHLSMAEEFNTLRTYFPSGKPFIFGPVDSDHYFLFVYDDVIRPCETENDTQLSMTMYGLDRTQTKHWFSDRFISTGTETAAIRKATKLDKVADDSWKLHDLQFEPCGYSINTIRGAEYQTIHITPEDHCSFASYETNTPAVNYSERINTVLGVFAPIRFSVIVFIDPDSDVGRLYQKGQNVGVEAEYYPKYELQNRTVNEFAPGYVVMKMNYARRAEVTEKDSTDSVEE
T2 sequence (A5HNV6 1-325 partner): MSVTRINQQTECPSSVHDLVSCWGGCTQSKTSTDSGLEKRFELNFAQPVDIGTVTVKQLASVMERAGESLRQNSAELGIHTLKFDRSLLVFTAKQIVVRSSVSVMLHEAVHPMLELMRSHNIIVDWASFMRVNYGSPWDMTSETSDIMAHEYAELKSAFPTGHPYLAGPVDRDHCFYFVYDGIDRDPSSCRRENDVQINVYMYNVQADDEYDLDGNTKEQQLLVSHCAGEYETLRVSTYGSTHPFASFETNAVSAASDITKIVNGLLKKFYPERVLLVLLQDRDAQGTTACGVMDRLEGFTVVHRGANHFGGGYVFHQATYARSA
It is filed as biochemical. As to conditions: 5 mM putrescine; allosteric activator; pH 8.0, 37 °C.

Substrate in data set [3]: C[S+](CC[C@H](N)C(=O)O)C[C@H]1O[C@@H](n2cnc3c(N)ncnc32)[C@H](O)[C@@H]1O
Description: purified protein. As to conditions: pH 8.0; 37.0 °C.

On to `NCCCCN` [putrescine], for which the “activation of AdoMet decarboxylation, 14CO2 trapping” value in data set [1] is recorded as “when putrescine was included, both cross-species heterodimers were further activated”; in data set [2], “when putrescine was included, both cross-species heterodimers were further activated”.

B1: Tc AdoMetDC/Tb Prozyme (Trypanosoma cruzi) (protein)
chain 1: T2 sequence (O76240 1-85)
chain 2: T2 sequence (O76240 86-370)
As usually defined, the Km is the substrate concentration at which the rate is half of its maximum. For B1, the Km in data set [3] turned out to be 440 ± 14 µM.
